According to patent publication US20080221097A1, “Imidazopyridine Derivatives as Cannabinoid Receptor Ligands” (priority 2005, published 2008):
Structures can show the parent of a compound that is named as a salt.

target: T1, human cannabinoid CB2 receptor (Homo sapiens, UniProt P34972); test: Cannabinoid CB2 receptor agonist activity, yeast assay; assay type: cell-based; conditions: relative to HU210; averages of a number of experiments; read-out: efficacy (Emax) at the cloned human cannabinoid CB2 receptor
T1 construct: expressed in transfected cells; host or cells: Saccharomyces cerevisiae strain MMY23 (cassette integrated at the ura3 locus, GPD promoter)
T1 sequence (P34972 whole entry): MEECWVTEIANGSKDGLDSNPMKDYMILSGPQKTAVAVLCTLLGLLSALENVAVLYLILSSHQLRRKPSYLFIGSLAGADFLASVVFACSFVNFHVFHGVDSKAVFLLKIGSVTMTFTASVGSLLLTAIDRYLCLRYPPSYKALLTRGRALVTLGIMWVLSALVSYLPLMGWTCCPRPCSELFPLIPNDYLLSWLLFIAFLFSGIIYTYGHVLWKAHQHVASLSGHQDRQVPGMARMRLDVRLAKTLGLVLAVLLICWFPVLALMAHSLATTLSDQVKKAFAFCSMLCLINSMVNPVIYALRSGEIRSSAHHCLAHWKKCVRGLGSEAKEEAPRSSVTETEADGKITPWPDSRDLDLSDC
Experimental: The cannabinoid CB2 receptor agonist activity of compounds of formula (I) was determined in accordance with the following experimental method.
Yeast (Saccharomyces cerevisiae) cells expressing the human cannabinoid CB2 receptor were generated by integration of an expression cassette into the ura3 chromosomal locus of yeast strain MMY23. This cassette consisted of DNA sequence encoding the human CB2 receptor flanked by the yeast GPD promoter to the 5′ end of CB2 and a yeast transcriptional terminator sequence to the 3′ end of CB2. MMY23 expresses a yeast/mammalian chimeric G-protein alpha subunit in which the C-terminal 5 amino acids of Gpa1 are replaced with the C-terminal 5 amino acids of human Gαi½ (as described in Brown et al. (2000), Yeast 16:11-22). Cells were grown at 30° C. in liquid Synthetic Complete (SC) yeast media (Guthrie and Fink (1991), Methods in Enzymology, Vol. 194) lacking uracil, tryptophan, adenine and leucine to late logarithmic phase (approximately 6 OD600/ml).
Agonists were prepared as […] solutions in DMSO. EC50 values (the concentration required to produce 50% maximal response) were estimated using 4 fold dilutions (BiomekFX, Beckman) into DMSO. Agonist solutions in DMSO (1% final assay volume) were transferred into black microtitre plates from Greiner (384-well). Cells were suspended at a density of 0.2 OD600/ml in SC media lacking histidine, uracil, tryptophan, adenine and leucine and supplemented with 10 mM 3-aminotriazole, 0.1M sodium phosphate pH 7.0, and 10 μM fluorescein di-β-D-glucopyranoside (FDGlu). This mixture (50 μl per well) was added to agonist in the assay plates (Multidrop 384, Labsystems). After incubation at 30° C. for 24 hours, fluorescence resulting from degradation of FDGlu to fluorescein due to exoglucanase, an endogenous yeast enzyme produced during agonist-stimulated cell growth, was determined using a fluorescence microtitre plate reader (Tecan Spectrofluor or LJL Analyst excitation wavelength: 485 nm; emission wavelength: 535 nm). Fluorescence was plotted against compound concentration and iteratively curve fitted using a four parameter fit to generate a concentration effect value. Efficacy (Emax) was calculated from the equation
Emax=Max[compound X]−Min[compound X]/Max[HU210]−Min[HU210]×100%
where Max[compound X] and Min[compound X] are the fitted maximum and minimum respectively from the concentration effect curve for compound X, and Max[HU210] and Min[HU210] are the fitted maximum and minimum respectively from the concentration effect curve for (6aR,10aR)-3-(1,1′-Dimethylheptyl)-6a,7,10,10a-tetrahydro-1-hydroxy-6,6-dimethyl-6H-dibenzo [b,d]pyran-9-methanol (HU210; available from Tocris). Equieffective molar ratio (EMR) values were calculated from the equation
Where EC50[compound X] is the EC50 of compound X and EC50[HU210] is the EC50of HU210.

Emax, > 50%:
Cn1cnc2c(Nc3cccc(OC(F)(F)F)c3)ncc(C(=O)N3CCOCC3)c21 [Example 17, 1-Methyl-7-(4-morpholinylcarbonyl)-N-{3-[(trifluoromethyl)oxy]phenyl}-1H-imidazo[4,5-c]pyridin-4-amine hydrochloride salt]
Cc1c(Nc2ncc(C(=O)N3CCOCC3)c3c2ncn3C)cccc1C(F)(F)F [Example 20, 1-Methyl-N-[2-methyl-3-(trifluoromethyl)phenyl]-7-(4-morpholinylcarbonyl)-1H-imidazo[4,5-c]pyridin-4-amine hydrochloride salt]
Cn1cnc2c(Nc3ccc(Cl)cc3Cl)ncc(C(=O)N3CCOCC3)c21 [Example 5, N-(2,4-Dichlorophenyl)-1-methyl-7-(4-morpholinylcarbonyl)-1H-imidazo[4,5-c]pyridin-4-amine hydrochloride salt]
CC(C)CNC(=O)c1cnc(Nc2cccc(Br)c2)c2ncn(C)c12 [Example 4, 4-[(3-Bromophenyl)amino]-1-methyl-N-(2-methylpropyl)-1H-imidazo[4,5-c]pyridine-7-carboxamide hydrochloride salt]
Cn1cnc2c(Oc3cccc(Cl)c3)ncc(C(=O)N3CCOCC3)c21 [Example 14, 4-1(3-Chlorophenyl)oxy]-1-methyl-7-(4-morpholinylcarbonyl)-1H-imidazo[4,5-c]pyridine hydrochloride salt]
Cn1cnc2c(Nc3cccc(Cl)c3)ncc(C(=O)N3CCCCC3)c21 [Example 10, N-(3-Chlorophenyl)-1-methyl-7-(1-piperidinylcarbonyl)-1H-imidazo[4,5-c]pyridin-4-amine hydrochloride salt]
Cn1cnc2c(Oc3cccc(Cl)c3)ncc(C(=O)N3CCCCC3)c21 [Example 13, 4-[(3-Chlorophenyl)oxy]-1-methyl-7-(1-piperidinylcarbonyl)-1H-imidazo[4,5-c]pyridine hydrochloride salt]
Cn1cnc2c(Nc3cccc(Br)c3)ncc(C(=O)N3CCCC3)c21 [Example 3, N-(3-Bromophenyl)-1-methyl-7-(1-pyrrolidinylcarbonyl)-1H-imidazo[4,5-c]pyridin-4-amine hydrochloride salt]
Cn1cnc2c(Nc3cccc(F)c3)ncc(C(=O)N3CCOCC3)c21 [Example 18, N-(3-Fluorophenyl)-1-methyl-7-(4-morpholinylcarbonyl)-1H-imidazo[4,5-c]pyridin-4-amine hydrochloride salt]
Cn1cnc2c(Nc3ccc(F)c(Cl)c3)ncc(C(=O)N3CCOCC3)c21 [Example 22, N-(3-Chloro-4-fluorophenyl)-1-methyl-7-(4-morpholinylcarbonyl)-1H-imidazo[4,5-c]pyridin-4-amine hydrochloride salt]
CC(C)CNC(=O)c1cnc(Nc2cccc(Cl)c2)c2ncn(C)c12 [Example 12, 4-[(3-Chlorophenyl)amino]-1-methyl-N-(2-methylpropyl)-1H-imidazo[4,5-c]pyridine-7-carboxamide hydrochloride salt]
Cn1cnc2c(Nc3cccc(Br)c3)ncc(C(=O)N3CCCCC3)c21 [Example 1, N-(3-Bromophenyl)-1-methyl-7-(1-piperidinylcarbonyl)-1H-imidazo[4,5-c]pyridin-4-amine hydrochloride salt]
Cn1cnc2c(Nc3cccc(C(F)(F)F)c3F)ncc(C(=O)N3CCOCC3)c21 [Example 21, N-[2-Fluoro-3-(trifluoromethyl)phenyl]-1-methyl-7-(4-morpholinylcarbonyl)-1H-imidazo[4,5-c]pyridin-4-amine hydrochloride salt]
Cn1cnc2c(Nc3ccc(Cl)cc3Cl)ncc(C(=O)N3CCCC3)c21 [Example 7, N-(2,4-Dichlorophenyl)-1-methyl-7-(1-pyrrolidinylcarbonyl)-1H-imidazo[4,5-c]pyridin-4-amine hydrochloride salt]
